Test results published in the supplement of paper PMC13380429.

How the values were obtained:
[1] = tested on: A549-ACE2 infected with SARS-CoV-2; assay: cell count relative to DMSO; higher = less toxic; conditions: 24 h
Caco-2 [2] = assay: cell viability relative to DMSO; higher = less toxic; conditions: 72 h
Calu-3 [3] = assay: as above; conditions: 72 h
HepG2 [4] = assay: as above; conditions: 72 h
U2OS [5] = assay: as above; conditions: 72 h
Vero E6 [6] = assay: as above; conditions: 72 h
[7] = tested on: A549-ACE2 infected with SARS-CoV-2; assay: SARS-CoV-2 infection rate relative to DMSO; higher = more infection; conditions: 24 h
A549-ACE2 [8] = assay: phospholipidosis EC50; higher = less potent phospholipidosis inducer
A549-ACE2 [9] = assay: drug-induced phospholipidosis relative to tamoxifen; higher = more phospholipidosis
[10] = tested on: A549-ACE2 infected with SARS-CoV-2; assay: morphology score (similarity to uninfected cells); higher = more like uninfected cells; conditions: 24 h
HepG2 [11] = assay: relative viability EC50 (midpoint between 100% and the lowest measured viability); higher = less toxic; conditions: 72 h
U2OS [12] = assay: as above; conditions: 72 h
Vero E6 [13] = assay: as above; conditions: 72 h
Caco-2 [14] = assay: drug sensitivity score (DSS) for viability; higher = more toxic; extreme values may be limits of the assay; conditions: 72 h
Calu-3 [15] = assay: as above; conditions: 72 h
HepG2 [16] = assay: as above; conditions: 72 h
U2OS [17] = assay: as above; conditions: 72 h
Vero E6 [18] = assay: as above; conditions: 72 h
Caco-2 [19] = assay: relative viability EC50 (midpoint between 100% and the lowest measured viability); higher = less toxic; conditions: 72 h
Calu-3 [20] = assay: as above; conditions: 72 h

CCOc1cn(-c2ccc(F)cc2C)nc1C(=O)Nc1ccc(Oc2ccnc3cc(OC)c(OC)cc23)c(F)c1 [LDC1267]
Conditions | SARS-CoV-2 infection rate [%] | cell count [%] | cell viability [%] | morphology score | phospholipidosis EC50 [µM]
A549-ACE2 [8], 24 h | – | – | – | – | 3.79
A549-ACE2 [8], 72 h | – | – | – | – | 3.79
Caco-2 [2], 1 nM | – | – | 95.3 | – | –
Caco-2 [2], 10 nM | – | – | 96.1 | – | –
Caco-2 [2], 100 nM | – | – | 94.7 | – | –
Caco-2 [2], 1000 nM | – | – | 91.9 | – | –
Caco-2 [2], 10000 nM | – | – | 68.7 | – | –
Calu-3 [3], 1 nM | – | – | 100 | – | –
Calu-3 [3], 10 nM | – | – | 99 | – | –
Calu-3 [3], 100 nM | – | – | 95.3 | – | –
Calu-3 [3], 1000 nM | – | – | 87.9 | – | –
Calu-3 [3], 10000 nM | – | – | 73 | – | –
HepG2 [4], 1 nM | – | – | 106 | – | –
HepG2 [4], 10 nM | – | – | 94.7 | – | –
HepG2 [4], 100 nM | – | – | 99.9 | – | –
HepG2 [4], 1000 nM | – | – | 88.5 | – | –
HepG2 [4], 10000 nM | – | – | 76.2 | – | –
U2OS [5], 1 nM | – | – | 97.5 | – | –
U2OS [5], 10 nM | – | – | 101 | – | –
U2OS [5], 100 nM | – | – | 98.4 | – | –
U2OS [5], 1000 nM | – | – | 102 | – | –
U2OS [5], 10000 nM | – | – | 83.1 | – | –
Vero E6 [6], 1 nM | – | – | 105 | – | –
Vero E6 [6], 10 nM | – | – | 103 | – | –
Vero E6 [6], 100 nM | – | – | 103 | – | –
Vero E6 [6], 1000 nM | – | – | 96.9 | – | –
Vero E6 [6], 10000 nM | – | – | 100 | – | –
[1], 0.3 µM | – | 102 | – | – | –
[1], 3 µM | – | 100 | – | – | –
[1], 10 µM | – | 91 | – | – | –
[1], 30 µM | – | 84 | – | – | –
[7], 0.3 µM | 91 | – | – | – | –
[7], 3 µM | 107 | – | – | – | –
[7], 10 µM | 90 | – | – | – | –
[7], 30 µM | 93 | – | – | – | –
[10], 0.3 µM | – | – | – | 0.33 | –
[10], 3 µM | – | – | – | 0.25 | –
[10], 10 µM | – | – | – | 0.23 | –
[10], 30 µM | – | – | – | 0.15 | –

drug-induced phospholipidosis [%], A549-ACE2 [9]
Conditions | 0.3 µM | 0.833333 µM | 3.33333 µM | 6.66667 µM | 10 µM | 30 µM
24 h | 2.46 | 2.17 | 18.8 | 41.1 | 67 | 35
48 h | 6.67 | 3.21 | 28.6 | 39.5 | – | 48.4
72 h | 7.89 | 6.46 | 31.2 | 48.2 | – | 61.4

Conditions | drug sensitivity score | relative viability EC50 [µM]
Caco-2 [14] | 2.4 | –
Calu-3 [15] | 2 | –
HepG2 [11] | – | > 10
HepG2 [16] | 2.2 | –
U2OS [12] | – | > 10
U2OS [17] | 0.3 | –
Vero E6 [13] | – | > 10
Vero E6 [18] | 0 | –

CN1CC2c3ccccc3Oc3ccc(Cl)cc3C2C1 (centres undefined) [asenapine]
Conditions | SARS-CoV-2 infection rate [%] | cell count [%] | cell viability [%] | morphology score | phospholipidosis EC50 [µM]
A549-ACE2 [8], 24 h | – | – | – | – | 7.2
A549-ACE2 [8], 48 h | – | – | – | – | 7.65
A549-ACE2 [8], 72 h | – | – | – | – | 9.6
Caco-2 [2], 1 nM | – | – | 94.9 | – | –
Caco-2 [2], 10 nM | – | – | 108 | – | –
Caco-2 [2], 100 nM | – | – | 106 | – | –
Caco-2 [2], 1000 nM | – | – | 108 | – | –
Caco-2 [2], 10000 nM | – | – | 109 | – | –
Calu-3 [3], 1 nM | – | – | 94.9 | – | –
Calu-3 [3], 10 nM | – | – | 96.5 | – | –
Calu-3 [3], 100 nM | – | – | 90.8 | – | –
Calu-3 [3], 1000 nM | – | – | 104 | – | –
Calu-3 [3], 10000 nM | – | – | 89.2 | – | –
HepG2 [4], 1 nM | – | – | 112 | – | –
HepG2 [4], 10 nM | – | – | 106 | – | –
HepG2 [4], 100 nM | – | – | 103 | – | –
HepG2 [4], 1000 nM | – | – | 96.3 | – | –
HepG2 [4], 10000 nM | – | – | 96.7 | – | –
U2OS [5], 1 nM | – | – | 99.5 | – | –
U2OS [5], 10 nM | – | – | 105 | – | –
U2OS [5], 100 nM | – | – | 101 | – | –
U2OS [5], 1000 nM | – | – | 108 | – | –
U2OS [5], 10000 nM | – | – | 98.2 | – | –
[1], 0.3 µM | – | 102 | – | – | –
[1], 3 µM | – | 118 | – | – | –
[1], 10 µM | – | 109 | – | – | –
[1], 30 µM | – | 102 | – | – | –
[7], 0.3 µM | 94 | – | – | – | –
[7], 3 µM | 59 | – | – | – | –
[7], 10 µM | 32 | – | – | – | –
[7], 30 µM | 30 | – | – | – | –
[10], 0.3 µM | – | – | – | 0.2 | –
[10], 3 µM | – | – | – | 0.63 | –
[10], 10 µM | – | – | – | 0.71 | –
[10], 30 µM | – | – | – | 0.39 | –

drug-induced phospholipidosis [%], A549-ACE2 [9]
Conditions | 0.3 µM | 0.833333 µM | 3.33333 µM | 6.66667 µM | 10 µM | 30 µM
24 h | 0.93 | 1.66 | 23.3 | 56.2 | 82.5 | 115
48 h | 2.52 | 0.05 | 14.9 | 49 | 77.2 | 111
72 h | 4.59 | 1.7 | 16.8 | 43.5 | 70.2 | 117

Conditions | drug sensitivity score | relative viability EC50 [µM]
Caco-2 [14] | 0 | –
Caco-2 [19] | – | > 10
Calu-3 [15] | 0 | –
Calu-3 [20] | – | > 10
HepG2 [11] | – | > 10
HepG2 [16] | 0 | –
U2OS [12] | – | > 10
U2OS [17] | 0 | –
